Article PMC5042178, “Amino acid residues of bitter taste receptor TAS2R16 that determine sensitivity in primates to β-glycosides” (Biophysics and Physicobiology, 2016)
Numbering of substitutions follows the chain as printed. Read-outs that look alike come from different tables or passages of the source.

Columns and labels:
Experiment in all cases: calcium imaging (Calcium-4), HEK […]
Type in all cases: cell-based
human TAS2R16 [1] = target: T1, human TAS2R16 (Homo sapiens, UniProt Q9NYV7)
T1 construct: full-length; N-terminal 45 residues of rat SSTR3 and C-terminal 8 residues of bovine rhodopsin as tags; pEAK10, HEK 293T with G16gust44
T1 sequence (Q9NYV7 1-291): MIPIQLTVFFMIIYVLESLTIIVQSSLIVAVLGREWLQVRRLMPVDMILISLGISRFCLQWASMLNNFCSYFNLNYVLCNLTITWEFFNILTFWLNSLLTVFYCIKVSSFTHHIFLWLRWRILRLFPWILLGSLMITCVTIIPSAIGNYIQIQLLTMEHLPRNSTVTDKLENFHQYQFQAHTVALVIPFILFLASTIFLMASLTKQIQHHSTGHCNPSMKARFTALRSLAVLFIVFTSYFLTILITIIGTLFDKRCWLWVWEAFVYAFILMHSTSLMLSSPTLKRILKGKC

human TAS2R16 [2] = target: T2, human TAS2R16 (Homo sapiens, UniProt Q9NYV7, I247M)
T2 construct: full-length; N-terminal 45 residues of rat SSTR3 and C-terminal 8 residues of bovine rhodopsin as tags; pEAK10, HEK 293T with G16gust44
T2 sequence (Q9NYV7 1-291 I247M): T1 sequence (Q9NYV7 1-291) with I247M

human TAS2R16 [3] = target: T1, human TAS2R16; conditions: G16gust44 co-expressed; agonist
human TAS2R16 [4] = target: T3, human TAS2R16 (Homo sapiens, UniProt Q9NYV7, V260F)
T3 construct: full-length; N-terminal 45 residues of rat SSTR3 and C-terminal 8 residues of bovine rhodopsin as tags; pEAK10, HEK 293T with G16gust44
T3 sequence (Q9NYV7 1-291 V260F): T1 sequence (Q9NYV7 1-291) with V260F

human TAS2R16 [5] = target: T4, human TAS2R16 (Homo sapiens, UniProt Q9NYV7, E86T/V260F)
T4 construct: full-length; N-terminal 45 residues of rat SSTR3 and C-terminal 8 residues of bovine rhodopsin as tags; pEAK10, HEK 293T with G16gust44
T4 sequence (Q9NYV7 1-291 E86T/V260F): T1 sequence (Q9NYV7 1-291) with E86T, V260F

human TAS2R16 [6] = target: T5, human TAS2R16 (Homo sapiens, UniProt Q9NYV7, L125W)
T5 construct: full-length; N-terminal 45 residues of rat SSTR3 and C-terminal 8 residues of bovine rhodopsin as tags; pEAK10, HEK 293T with G16gust44
T5 sequence (Q9NYV7 1-291 L125W): T1 sequence (Q9NYV7 1-291) with L125W

human TAS2R16 [7] = target: T6, human TAS2R16 (Homo sapiens, UniProt Q9NYV7, S133C)
T6 construct: full-length; N-terminal 45 residues of rat SSTR3 and C-terminal 8 residues of bovine rhodopsin as tags; pEAK10, HEK 293T with G16gust44
T6 sequence (Q9NYV7 1-291 S133C): T1 sequence (Q9NYV7 1-291) with S133C

human TAS2R16 [8] = target: T7, human TAS2R16 (Homo sapiens, UniProt Q9NYV7, E86T/I247M/V260F)
T7 construct: full-length; N-terminal 45 residues of rat SSTR3 and C-terminal 8 residues of bovine rhodopsin as tags; pEAK10, HEK 293T with G16gust44
T7 sequence (Q9NYV7 1-291 E86T/I247M/V260F): T1 sequence (Q9NYV7 1-291) with E86T, I247M, V260F

human TAS2R16 [9] = target: T8, human TAS2R16 (Homo sapiens, UniProt Q9NYV7, E86T/I247M)
T8 construct: full-length; N-terminal 45 residues of rat SSTR3 and C-terminal 8 residues of bovine rhodopsin as tags; pEAK10, HEK 293T with G16gust44
T8 sequence (Q9NYV7 1-291 E86T/I247M): T1 sequence (Q9NYV7 1-291) with E86T, I247M

Compound: N#C[C@H](O[C@@H]1O[C@H](CO[C@@H]2O[C@H](CO)[C@@H](O)[C@H](O)[C@H]2O)[C@@H](O)[C@H](O)[C@H]1O)c1ccccc1 [amygdalin]
- EC50 (human TAS2R16 [1]): 0.76 ± 0.4 mM

Compound: OCc1ccccc1O[C@@H]1O[C@H](CO)[C@@H](O)[C@H](O)[C@H]1O [salicin]
- EC50 (human TAS2R16 [2]): 1.4 ± 0.09 mM
- EC50 (human TAS2R16 [3]): plotted with wild-type human and macaque TAS2R16s
- EC50 (human TAS2R16 [4]): 1.28 ± 0.18 mM
- EC50 (human TAS2R16 [5]): 3.65 ± 1 mM
- EC50 (human TAS2R16 [6]): 0.2 ± 0.05 mM
- EC50 (human TAS2R16 [7]): 0.074 ± 0.006 mM
- EC50 (human TAS2R16 [8]): 5.09 ± 1.1 mM
- EC50 (human TAS2R16 [9]): 3.54 ± 0.55 mM
